# Results published in PMC8041284, “Tunable Methacrylamides for Covalent Ligand Directed Release Chemistry” (Journal of the American Chemical Society, 2021).
# Target: BTK (Homo sapiens, UniProt Q06187)
# Assay: biochemical
# Conditions: read-out: BTK inhibition (%), 0.75 uM BTK, […] probe 3l, 15 min preincubation
# Sequence of BTK (Q06187 402-655 limits assumed): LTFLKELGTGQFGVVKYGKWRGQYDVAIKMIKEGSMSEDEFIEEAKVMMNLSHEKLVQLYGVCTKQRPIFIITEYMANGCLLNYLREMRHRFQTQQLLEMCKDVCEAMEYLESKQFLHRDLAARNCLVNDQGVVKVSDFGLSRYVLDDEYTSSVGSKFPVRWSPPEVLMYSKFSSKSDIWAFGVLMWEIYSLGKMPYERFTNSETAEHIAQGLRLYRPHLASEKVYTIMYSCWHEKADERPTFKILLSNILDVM
row,SMILES,inhibition at 10 µM [%]
1,C=C[C@@H]1CNC(=S)O1 [PCM-0216374],-6.2
2,CC(C)=CCC[C@](C)(O[C@@H]1O[C@H](CO[C@@H]2OC[C@H](O)[C@H](O)[C@H]2O)[C@@H](O)[C@H](O)[C@H]1O)[C@H]1CC[C@]2(C)[C@@H]1[C@H](O)C[C@@H]1[C@@]3(C)CC[C@H](O[C@@H]4O[C@H](CO)[C@@H](O)[C@H](O)[C@H]4O[C@@H]4O[C@H](CO)[C@@H](O)[C@H](O)[C@H]4O)C(C)(C)[C@@H]3CC[C@]12C [PCM-0216375],7.7
3,C=C(C)[C@@H]1CC[C@]2(C(=O)O[C@@H]3O[C@H](CO[C@@H]4O[C@H](CO)[C@@H](O[C@@H]5O[C@@H](C)[C@H](O)[C@@H](O)[C@H]5O)[C@H](O)[C@H]4O)[C@@H](O)[C@H](O)[C@H]3O)CC[C@]3(C)[C@H](CC[C@@H]4[C@@]5(C)CC[C@H](O[C@@H]6OC[C@H](O)[C@H](O)[C@H]6O[C@@H]6O[C@@H](C)[C@H](O)[C@@H](O)[C@H]6O)[C@@](C)(CO)[C@@H]5CC[C@]43C)[C@@H]12 [PCM-0216377],-42.6
4,O=C[C@H](O)[C@@H](O)[C@H](O)[C@H](O)CO[C@H]1O[C@H](CO[C@H]2O[C@H](CO)[C@H](O)[C@H](O)[C@H]2O)[C@H](O)[C@H](O)[C@H]1O [PCM-0216378],3.9
5,CC1(C)CC[C@]2(C(=O)O)CC[C@]3(CO)C(=CC[C@@H]4[C@@]5(C)C[C@H](O)[C@H](O[C@@H]6O[C@H](CO)[C@@H](O)[C@H](O)[C@H]6O)[C@@](C)(C(=O)O)[C@@H]5CC[C@]43C)[C@@H]2C1 [PCM-0216380],11.6
6,CCCCCCCCC[C@H](O)CC(=O)CCc1ccc(O)c(OC)c1 [PCM-0216384],-10.8
7,COc1cc2c(cc1O)C[C@@H]1NCCc3cc(OC)c(O)c-2c31 [PCM-0216385],6.2
8,C[C@@H]1CCC=C2C(=O)C[C@H]3OOC(C)(C)[C@H]3[C@]21C [PCM-0216386],7.7
9,CC1(C)CC[C@]2(C(=O)O)CCC3=C([C@@H](CCl)C[C@@H]4[C@@]5(C)C[C@H](O)[C@H](O)[C@@](C)(C(=O)O)[C@@H]5CC[C@@]34C)[C@@H]2C1 [PCM-0216388],-4.6
10,CC(=O)O[C@@H](C[C@@H](C)C1=C2C[C@H](O)[C@H]3[C@@]4(C)CCC(=O)C(C)(C)[C@@H]4CC[C@]3(C)[C@@]2(C)CC1)[C@H]1OC1(C)C [PCM-0216390],-4.6
11,CC1(C)CC[C@]2(C(=O)O[C@@H]3O[C@H](CO)[C@@H](O)[C@H](O)[C@H]3O)CC[C@]3(C)C(=CC[C@@H]4[C@@]5(C)CC[C@H](O[C@@H]6O[C@H](C(=O)O)[C@@H](O)[C@H](O)[C@H]6O[C@@H]6O[C@H](CO)[C@@H](O)[C@H](O)[C@H]6O)C(C)(C)[C@@H]5CC[C@]43C)[C@@H]2C1 [PCM-0216395],4.6
12,O=C[C@H](O)[C@@H](O)[C@H](O[C@H]1O[C@H](CO)[C@@H](O[C@H]2O[C@H](CO)[C@@H](O[C@H]3O[C@H](CO)[C@@H](O[C@H]4O[C@H](CO)[C@@H](O)[C@H](O)[C@H]4O)[C@H](O)[C@H]3O)[C@H](O)[C@H]2O)[C@H](O)[C@H]1O)[C@H](O)CO [PCM-0216396],3.1
13,CC(C)=CCC[C@](C)(O[C@@H]1O[C@H](CO)[C@@H](O)[C@H](O)[C@H]1O)[C@H]1CC[C@]2(C)[C@@H]1[C@H](O)C[C@@H]1[C@@]3(C)CC[C@H](O)C(C)(C)[C@@H]3CC[C@]12C [PCM-0216397],11.6
14,C[C@H]1CC[C@@]2(OC1)O[C@H]1C[C@H]3[C@@H]4CC[C@@H]5C[C@@H](O[C@@H]6O[C@H](CO)[C@H](O)[C@H](O)[C@H]6O[C@@H]6O[C@H](CO)[C@@H](O)[C@H](O)[C@H]6O)CC[C@]5(C)[C@H]4CC[C@]3(C)[C@H]1[C@@H]2C [PCM-0216400],1.5
15,OC[C@H]1O[C@@](CO)(OC[C@@]2(O[C@H]3O[C@H](CO)[C@@H](O)[C@H](O)[C@H]3O)O[C@H](CO)[C@@H](O)[C@@H]2O)[C@@H](O)[C@@H]1O [PCM-0216401],21.6
16,C[C@@H]1CC[C@@]2(OC1)O[C@H]1C[C@H]3[C@@H]4CC=C5C[C@@H](O[C@@H]6O[C@H](CO)[C@@H](O[C@@H]7O[C@@H](CO)[C@H](O)[C@H]7O)[C@H](O)[C@H]6O[C@@H]6O[C@@H](C)[C@H](O)[C@@H](O)[C@H]6O)CC[C@]5(C)[C@H]4CC[C@]3(C)[C@H]1[C@@H]2C [PCM-0216403],-10
17,CC1(C)CC[C@]2(C(=O)O[C@@H]3O[C@H](CO)[C@@H](O)[C@H](O)[C@H]3O)CC[C@]3(C)C(=CC[C@@H]4[C@@]5(C)CC[C@H](O[C@@H]6O[C@H](C(=O)O)[C@@H](O)[C@H](O)[C@H]6O)C(C)(C)[C@@H]5CC[C@]43C)[C@@H]2C1 [PCM-0216404],3.1
18,CC(C)=CCC[C@](C)(O)[C@H]1CC[C@]2(C)[C@@H]1[C@H](O)C[C@@H]1[C@@]3(C)CC[C@H](O)C(C)(C)[C@@H]3[C@@H](O[C@@H]3O[C@H](CO)[C@@H](O)[C@H](O)[C@H]3O[C@@H]3O[C@@H](C)[C@H](O)[C@@H](O)[C@H]3O)C[C@]12C [PCM-0216405],-5.4
19,C[C@]1(O)C[C@@H](O)[C@@H]2C=CO[C@@H](O[C@@H]3O[C@H](CO)[C@@H](O)[C@H](O)[C@H]3O)[C@@H]21 [PCM-0216407],-5.4
20,CC(C)=CCC[C@](C)(O)[C@H]1CC[C@]2(C)[C@@H]1[C@H](O)C[C@@H]1[C@@]3(C)CC[C@H](O)C(C)(C)[C@@H]3[C@@H](O[C@@H]3O[C@H](CO)[C@@H](O)[C@H](O)[C@H]3O)C[C@]12C [PCM-0216412],-10.8
21,C=C1C[C@@]23CC[C@H]4[C@@](C)(CCC[C@@]4(C)C(=O)O[C@@H]4O[C@H](CO)[C@@H](O)[C@H](O)[C@H]4O)[C@@H]2CC[C@]1(O[C@@H]1O[C@H](CO)[C@@H](O)[C@H](O)[C@H]1O)C3 [PCM-0216413],4.6
22,O=CC1OC(=O)c2cc(O)c(O)c(O)c2-c2c(cc(O)c(O)c2O)C(=O)OC1C1OC(=O)c2cc(O)c(O)c(O)c2-c2c(O)c(O)c3oc(=O)c4c(c(O)c(O)c5oc(=O)c2c3c54)-c2c(cc(O)c(O)c2O)C(=O)OCC1O (stereo not drawn) [PCM-0216414],27
23,C=C(C(=O)O)[C@@H]1CC[C@@H](C)[C@@H]2CCC(C)=C[C@@H]21 [PCM-0216417],0
24,COc1ccc(CCc2cc(OC)c(OC)c(OC)c2)cc1O [PCM-0216418],-24.7
25,CC(C)=C1CC[C@@H](C)CC1=O [PCM-0216421],14.7
26,C[C@@H]1CC[C@@]2(NC1)O[C@H]1C[C@H]3[C@@H]4CC=C5C[C@@H](O[C@@H]6O[C@H](CO)[C@@H](O[C@@H]7O[C@@H](C)[C@H](O)[C@@H](O)[C@H]7O)[C@H](O)[C@H]6O[C@@H]6O[C@@H](C)[C@H](O)[C@@H](O)[C@H]6O)CC[C@]5(C)[C@H]4CC[C@]3(C)[C@H]1[C@@H]2C [PCM-0216423],17.8
27,C[C@@]12C[C@@]3(O)O[C@@H](O1)[C@]1(COC(=O)c4ccccc4)[C@H]3C[C@@]12O[C@@H]1O[C@H](COC(=O)c2ccccc2)[C@@H](O)[C@H](O)[C@H]1O [PCM-0216426],-18.5

# Next, values leading:
row,inhibition at 10 µM [%],SMILES
1,7.7,COc1cc(-c2oc3cc(O)cc(O)c3c(=O)c2O[C@@H]2O[C@H](CO[C@@H]3O[C@@H](C)[C@H](O)[C@@H](O)[C@H]3O)[C@@H](O)[C@H](O)[C@H]2O[C@@H]2O[C@@H](C)[C@H](O)[C@@H](O)[C@H]2O)ccc1O [PCM-0216372]
2,3.9,COc1ccc(-c2oc3c(CC=C(C)C)c(O)cc(O)c3c(=O)c2O)cc1 [PCM-0216376]
3,-2.3,CN1Cc2c(ccc3c2OCO3)[C@@]2(C)[C@@H](O)Cc3cc4c(cc3[C@@H]12)OCO4 [PCM-0216379]
4,-10,COc1ccc(-c2coc3cc(O[C@@H]4O[C@H](CO)[C@@H](O)[C@H](O)[C@H]4O)ccc3c2=O)cc1O [PCM-0216381]
5,-1.5,COc1ccc2c(c1O)-c1c(O)c(OC)cc3c1[C@H](C2)[N+](C)(C)CC3 [PCM-0216382]
6,37.1,O=C(O[C@@H]1O[C@@H]2COC(=O)c3cc(O)c(O)c(O)c3-c3c(cc(O)c(O)c3O)C(=O)O[C@H]([C@H]1O)[C@@H]2O)c1cc(O)c(O)c(O)c1 [PCM-0216383]
7,5.4,Cc1cc(O)c(C(=O)CCC(C)C)c(=O)o1 [PCM-0216387]
8,13.9,C[C@@H]1O[C@@H](OC[C@H]2O[C@@H](Oc3cc(O)c4c(=O)cc(-c5ccc(O)cc5)oc4c3)[C@H](O[C@@H]3O[C@@H](C)[C@H](O)[C@@H](O)[C@H]3O)[C@@H](O)[C@@H]2O)[C@H](O)[C@H](O)[C@H]1O [PCM-0216389]
9,19.3,C/C=C/c1cc(OC)c2c(c1)C(C)C(c1ccc(O)c(OC)c1)O2 (stereo not drawn) [PCM-0216391]
10,-22.4,O=c1cc(-c2ccc(O)c(O)c2)oc2c([C@@H]3O[C@H](CO)[C@@H](O)[C@H](O)[C@H]3O)c(O)cc(O)c12 [PCM-0216392]
11,6.2,COc1cc2c(=O)c(-c3ccc(O)cc3)coc2cc1O [PCM-0216399]
12,73.4,COc1cc(-c2oc3cc(O)cc(O)c3c(=O)c2O)ccc1O [PCM-0216402]
13,70.3,O=c1cc(-c2ccc(O)cc2)oc2cc(O)c(O)c(O)c12 [PCM-0216408]
14,29.3,O=C1C[C@@H](c2ccc(O)c(O)c2)Oc2cc(O)cc(O)c21 [PCM-0216409]
15,10.8,CC(C)c1cc2c(c(O)c1O)[C@@]13CCCC(C)(C)[C@@H]1C[C@@H]2OC3=O [PCM-0216410]
16,-11.6,C[C@@H]1O[C@@H](O[C@@H]2[C@@H](O)[C@H](OCCc3ccc(O)c(O)c3)O[C@H](COC(=O)/C=C/c3ccc(O)c(O)c3)[C@H]2O)[C@H](O)[C@H](O)[C@H]1O [PCM-0216411]
17,-15.4,COc1cc2oc(-c3ccc(O)cc3)cc(=O)c2c(O)c1[C@@H]1O[C@H](CO)[C@@H](O)[C@H](O)[C@H]1O[C@@H]1O[C@H](CO)[C@@H](O)[C@H](O)[C@H]1O [PCM-0216416]
18,32.4,COc1cc(C)c2c(=O)c(-c3ccccc3)coc2c1 [PCM-0216420]
19,68.7,COc1cc(C[C@H](C)[C@H](C)Cc2ccc3c(c2)OCO3)ccc1O [PCM-0216424]
20,10.8,COc1cc2c(cc1O)[C@@H](Cc1ccc(O)c(Oc3ccc(C[C@@H]4c5cc(OC)c(OC)cc5CCN4C)cc3)c1)N(C)CC2 [PCM-0216427]
21,7.7,C/C=C(/C)C(=O)O[C@H]1[C@@H](OC(=O)CC(C)C)c2c(ccc3ccc(=O)oc23)OC1(C)C [PCM-0216428]
